Reference: patent US9694016B2 (Novartis AG, priority 2013, dated 2017)
pIC50: −log10 of the molar value. Where two headings read alike, the source gives them in different places.

Molecular target: b-Raf (V600E) (Homo sapiens (Human), UniProt P15056, V600E)
Conditions: read-out: b-Raf IC-50, AlphaScreen
[1] = 60 min pre-incubation, reaction 3 hours at room temperature
[2] = 60 min pre-incubation, 3 hours reaction

Sequence of b-Raf (V600E) (P15056 whole entry V600E): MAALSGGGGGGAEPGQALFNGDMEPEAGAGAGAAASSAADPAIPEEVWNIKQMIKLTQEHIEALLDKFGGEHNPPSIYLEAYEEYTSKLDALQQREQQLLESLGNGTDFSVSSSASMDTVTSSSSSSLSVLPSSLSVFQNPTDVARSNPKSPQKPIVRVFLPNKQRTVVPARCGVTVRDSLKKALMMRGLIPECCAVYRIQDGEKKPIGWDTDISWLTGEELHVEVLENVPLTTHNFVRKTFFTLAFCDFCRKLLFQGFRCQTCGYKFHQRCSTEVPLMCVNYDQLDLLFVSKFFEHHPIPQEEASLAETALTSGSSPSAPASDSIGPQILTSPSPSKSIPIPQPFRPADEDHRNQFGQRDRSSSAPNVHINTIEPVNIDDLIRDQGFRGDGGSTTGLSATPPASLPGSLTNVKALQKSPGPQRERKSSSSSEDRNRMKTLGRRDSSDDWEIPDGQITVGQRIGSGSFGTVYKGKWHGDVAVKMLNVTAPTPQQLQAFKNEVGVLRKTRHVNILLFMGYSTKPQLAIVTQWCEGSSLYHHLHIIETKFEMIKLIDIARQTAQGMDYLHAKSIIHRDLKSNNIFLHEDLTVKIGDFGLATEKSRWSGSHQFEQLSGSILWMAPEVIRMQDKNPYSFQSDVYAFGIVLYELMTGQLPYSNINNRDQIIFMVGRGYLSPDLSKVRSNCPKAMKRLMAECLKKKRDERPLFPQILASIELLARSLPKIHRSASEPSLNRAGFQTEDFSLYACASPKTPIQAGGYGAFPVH

## Cc1ccc(NC(=O)c2cccc(S(C)(=O)=O)c2)cc1-c1cc(N2CCOCC2)nc(N2CC(O)C2)c1 [Example 1096, N-(3-(2-(3-hydroxyazetidin-1-yl)-6-morpholinopyridin-4-yl)-4-methylphenyl)-3-(methylsulfonyl)benzamide]
[1]
  pIC50: 8.70

## CCNc1nc(-c2cc(C(=O)Nc3cccc(C(C)(C)C#N)c3)ccc2C)cc(N2CCOCC2)n1 [Example 732, N-(3-(2-cyanopropan-2-yl)phenyl)-3-(2-(ethylamino)-6-morpholinopyrimidin-4-yl)-4-methylbenzamide]
[2]
  pIC50: 8.66

## Cc1ccc(NC(=O)c2ccnc(C(C)(C)F)c2)cc1-c1cc(N2CCOCC2)c(OC(C)C)nn1 [Example 595, 2-(2-fluoropropan-2-yl)-N-(3-(6-isopropoxy-5-morpholinopyridazin-3-yl)-4-methylphenyl)isonicotinamide]
[2]
  pIC50: 9.22

## Cc1ncc(NC(=O)c2ccnc(C(C)(C)C#N)c2)cc1-c1cc(N2CCOCC2)nc(NC[C@@H](C)O)n1 [Example 742, (R)-2-(2-cyanopropan-2-yl)-N-(5-(2-((2-hydroxypropyl)amino)-6-morpholinopyrimidin-4-yl)-6-methylpyridin-3-yl)isonicotinamide]
[2]
  pIC50: 7.41

## CCOc1ncc(-c2cc(NC(=O)c3ccnc(S(C)(=O)=O)c3)cnc2C)cc1N1CCOCC1 [Example 243, N-(6′-ethoxy-2-methyl-5′-morpholino-[3,3′-bipyridin]-5-yl)-2-(methylsulfonyl)isonicotinamide]
Table 2, 3 hours reaction
  pIC50: 8.28

## Cc1ccc(NC(=O)c2cccc(C(F)(F)F)c2)cc1-c1cc(NCC(C)(C)O)nc(N2CCOCC2)c1 [Example 1062, N-(3-(2-((2-hydroxy-2-methylpropyl)amino)-6-morpholinopyridin-4-yl)-4-methylphenyl)-3-(trifluoromethyl)benzamide]
[1]
  pIC50: 9.01

## Cc1ccc(NC(=O)c2cccc(OC(F)(F)F)c2)cc1-c1cc(N2CCOCC2)c(=O)n(C)c1 [Example 340, N-(4-methyl-3-(1-methyl-5-morpholino-6-oxo-1,6-dihydropyridin-3-yl)phenyl)-3-(trifluoromethoxy)benzamide]
Table 2, 3 hours reaction
  pIC50: 7.44

## CCOc1ncc(-c2cc(NC(=O)c3cnnc(C(C)(C)C#N)c3)cnc2C)cc1N1CCOCC1 [Example 287, 6-(2-cyanopropan-2-yl)-N-(6′-ethoxy-2-methyl-5′-morpholino-[3,3′-bipyridin]-5-yl)pyridazine-4-carboxamide]
Table 2, 3 hours reaction
  pIC50: 7.78

## Cc1ccc(NC(=O)c2cccc(S(C)(=O)=O)c2)cc1-c1cc(N2CCOCC2)nc(N2CC(C)(O)C2)c1 [Example 1074, N-(3-(2-(3-hydroxy-3-methylazetidin-1-yl)-6-morpholinopyridin-4-yl)-4-methylphenyl)-3-(methylsulfonyl)benzamide]
[1]
  pIC50: 8.73

## Cc1ncc(NC(=O)c2ccnc(C(C)C)c2)cc1-c1cc(N2CCOCC2)nc(N2CC(O)C2)c1 [Example 1081, N-(2′-(3-hydroxyazetidin-1-yl)-2-methyl-6′-morpholino-[3,4′-bipyridin]-5-yl)-2-isopropylisonicotinamide]
[1]
  pIC50: 8.19

## Cc1ncc(NC(=O)c2cccc(C(F)(F)F)c2)cc1-c1cc(N2CCOCC2)c2nccn2n1 [Example 867, N-(6-methyl-5-(8-morpholinoimidazo[1,2-b]pyridazin-6-yl)pyridin-3-yl)-3-(trifluoromethyl)benzamide]
[1]
  pIC50: 8.85

## Cc1ccc(NC(=O)c2ccnc(C(C)(C)C)c2)cc1-c1cc(N2CCOCC2)c2nccn2n1 [Example 845, 2-(tert-butyl)-N-(4-methyl-3-(8-morpholinoimidazo[1,2-b]pyridazin-6-yl)phenyl)isonicotinamide]
[2]
  pIC50: 9.05

## Cc1ncc(NC(=O)c2cc(C(F)(F)F)ccn2)cc1-c1cnc(OC2CCOCC2)c(N2CCOCC2)c1 [Example 942, N-(2-methyl-5′-morpholino-6′-((tetrahydro-2H-pyran-4-yl)oxy)-[3,3′-bipyridin]-5-yl)-4-(trifluoromethyl)picolinamide]
[1]
  pIC50: 8.66

## Cc1ncc(C(=O)Nc2cccc(C(C)(C)O)c2)cc1-c1cc(N2CCOCC2)c(=O)n(C)c1 [Example 446, N-(3-(2-hydroxypropan-2-yl)phenyl)-1′,2-dimethyl-5′-morpholino-6′-oxo-1′,6′-dihydro-[3,3′-bipyridine]-5-carboxamide]
[2]
  pIC50: 7.00

## Cc1ncc(NC(=O)c2ccnc(C(F)(F)F)c2)cc1-c1cnc(OC2CCOCC2)c(N2CCOCC2)c1 [Example 314, N-(2-methyl-5′-morpholino-6′-((tetrahydro-2H-pyran-4-yl)oxy)-[3,3′-bipyridin]-5-yl)-2-(trifluoromethyl)isonicotinamide]
Table 2, 3 hours reaction
  pIC50: 8.22

## CCOc1ncc(-c2cc(NC(=O)c3cnnc(C(C)(C)F)c3)ccc2C)cc1N1CCOCC1 [Example 304, N-(3-(6-ethoxy-5-morpholinopyridin-3-yl)-4-methylphenyl)-6-(2-fluoropropan-2-yl)pyridazine-4-carboxamide]
Table 2, 3 hours reaction
  pIC50: 9.05

## Cc1ncc(NC(=O)c2ccnc(C(C)(C)C#N)c2)cc1-c1cc(NCCO)nc(N2CCOCC2)c1 [Example 1042, 2-(2-cyanopropan-2-yl)-N-(2′-((2-hydroxyethyl)amino)-2-methyl-6′-morpholino-[3,4′-bipyridin]-5-yl)isonicotinamide]
[1]
  pIC50: 7.39

## Cc1ncc(NC(=O)c2cc(C(C)(C)C#N)ccn2)cc1-c1cnc(OCCO)c(N2CCOCC2)c1 [Example 973, 4-(2-cyanopropan-2-yl)-N-(6′-(2-hydroxyethoxy)-2-methyl-5′-morpholino-[3,3′-bipyridin]-5-yl)picolinamide]
[1]
  pIC50: 7.80

## Cc1ccc(NC(=O)c2ccnc(S(C)(=O)=O)c2)cc1-c1cc(N2CCOCC2)nc(N2CCOCC2)c1 [Example 1118, N-(3-(2,6-dimorpholinopyridin-4-yl)-4-methylphenyl)-2-(methylsulfonyl)isonicotinamide]
[1]
  pIC50: 8.99

## CCOc1nnc(-c2cc(NC(=O)c3ccc(CO)c(C(F)(F)F)c3)cnc2C)cc1N1CCOCC1 [Example 627, N-(5-(6-ethoxy-5-morpholinopyridazin-3-yl)-6-methylpyridin-3-yl)-4-(hydroxymethyl)-3-(trifluoromethyl)benzamide]
[2]
  pIC50: 8.43

## Cc1ncc(NC(=O)c2cccc(C(F)(F)F)c2)cc1-c1cc(N2CCOCC2)nc(N2CC(O)C2)c1 [Example 1094, N-(2′-(3-hydroxyazetidin-1-yl)-2-methyl-6′-morpholino-[3,4′-bipyridin]-5-yl)-3-(trifluoromethyl)benzamide]
[1]
  pIC50: 8.42

## CCNc1nc(-c2cc(NC(=O)c3ccnc(C(C)(C)C#N)c3)ccc2C)cc(N2CCOCC2)n1 [Example 717, 2-(2-cyanopropan-2-yl)-N-(3-(2-(ethylamino)-6-morpholinopyrimidin-4-yl)-4-methylphenyl)isonicotinamide]
[2]
  pIC50: 8.54

## Cc1ccc(NC(=O)c2cnnc(C3CC3)c2)cc1-c1cc(N2CCOCC2)n(C)c(=O)c1 [Example 496, 6-cyclopropyl-N-(4-methyl-3-(1-methyl-6-morpholino-2-oxo-1,2-dihydropyridin-4-yl)phenyl)pyridazine-4-carboxamide]
[2]
  pIC50: 9.05

## Cc1ccc(NC(=O)c2cccc(C3(C#N)CC3)c2Cl)cc1-c1cc(N2CCOCC2)c(=O)n(C)c1 [Example 346, 2-chloro-3-(1-cyanocyclopropyl)-N-(4-methyl-3-(1-methyl-5-morpholino-6-oxo-1,6-dihydropyridin-3-yl)phenyl)benzamide]
Table 2, 3 hours reaction
  pIC50: 8.06

## Cc1ncc(NC(=O)c2ccnc(C(C)(C)C#N)c2)cc1-c1cc(N2CCOCC2)nc(NC(C)(C)CO)n1 [Example 750, 2-(2-cyanopropan-2-yl)-N-(5-(2-((1-hydroxy-2-methylpropan-2-yl)amino)-6-morpholinopyrimidin-4-yl)-6-methylpyridin-3-yl)isonicotinamide]
[2]
  pIC50: 7.65

## Cc1ccc(NC(=O)c2cnnc(C3(C#N)CC3)c2)cc1-c1cc(N2CCOCC2)c(=O)n(C)c1 [Example 902, 6-(1-cyanocyclopropyl)-N-(4-methyl-3-(1-methyl-5-morpholino-6-oxo-1,6-dihydropyridin-3-yl)phenyl)pyridazine-4-carboxamide]
[1]
  pIC50: 8.47

## Cc1ccc(NC(=O)c2ccnc(C(C)(C)C#N)c2)cc1-c1cc(N2CCOCC2)nc(NC2(CO)CCOCC2)n1 [Example 754, 2-(2-cyanopropan-2-yl)-N-(3-(2-((4-(hydroxymethyl)tetrahydro-2H-pyran-4-yl)amino)-6-morpholinopyrimidin-4-yl)-4-methylphenyl)isonicotinamide]
[2]
  pIC50: 8.47

## CCN(C(=O)c1cccc(C(F)(F)F)c1)c1cnc(C)c(-c2cnc(OC3CCOCC3)c(N3CCOCC3)c2)c1 [Example 329, N-ethyl-N-(2-methyl-5′-morpholino-6′-((tetrahydro-2H-pyran-4-yl)oxy)-[3,3′-bipyridin]-5-yl)-3-(trifluoromethyl)benzamide]
Table 2, 3 hours reaction
  pIC50: 5.96

## Cc1ccc(C(=O)Nc2cccc(C(C)(C)O)c2)cc1-c1cc(N2CCOCC2)c(=O)n(C)c1 [Example 439, N-(3-(2-hydroxypropan-2-yl)phenyl)-4-methyl-3-(1-methyl-5-morpholino-6-oxo-1,6-dihydropyridin-3-yl)benzamide]
[2]
  pIC50: 8.20

## COc1nnc(-c2cc(NC(=O)c3ccnc(C(C)(F)F)c3)ccc2C)cc1N1CCOCC1 [Example 548, 2-(1,1-difluoroethyl)-N-(3-(6-methoxy-5-morpholinopyridazin-3-yl)-4-methylphenyl)isonicotinamide]
[2]
  pIC50: 8.96

## Cc1ncc(NC(=O)c2ccnc(C(C)(C)F)c2)cc1-c1cnc(Cl)c(N2CCOCC2)c1 [Example 290, N-(6′-chloro-2-methyl-5′-morpholino-[3,3-bipyridin]-5-yl)-2-(2-fluoropropan-2-yl)isonicotinamide]
Table 2, 3 hours reaction
  pIC50: 8.22

## Cc1ncc(NC(=O)c2cccc(S(C)(=O)=O)c2)cc1-c1cc(N2CCOCC2)n(C)c(=O)c1 [Example 509, N-(1′,2-dimethyl-6′-morpholino-2′-oxo-1′,2′-dihydro-[3,4′-bipyridin]-5-yl)-3-(methylsulfonyl)benzamide]
[2]
  pIC50: 7.76

## Cc1ncc(NC(=O)c2cccc(C(F)(F)F)c2)cc1-c1cnc(O[C@@H](C)CO)c(N2CCOCC2)c1 [Example 985, (S)—N-(6′-((1-hydroxypropan-2-yl)oxy)-2-methyl-5′-morpholino-[3,3′-bipyridin]-5-yl)-3-(trifluoromethyl)benzamide]
[1]
  pIC50: 8.70
